This assay deals with Vasopressin V1a receptor (Homo sapiens, UniProt P37288). Kind of assay: Vasopressin V1A Receptor Antagonist Assay: The purpose of this assay was to determine the inhibitory effect of synthesized compounds on the Vasopressin V1a receptor. The assay as performed in Chinese Hamster Ovary (CHO) cells expressing the human Arginine Vasopressin Receptor 1a (AVPR1a). Arginine Vasopressin (AVP) evokes an increase in intracellular calcium in CHO-AVPR1a cells which is measured in a fluorescence assay on the […] using calcium sensitive dyes. Test compounds were assessed for their ability to affect the magnitude of the response to AVP, with antagonists showing a concentration-dependent reduction in the AVP-mediated fluorescence. Compounds were tested in duplicate in a 10-point, 1:3 dilution series starting at a nominal concentration of 3 μM in the assay.CHO-AVPR1a cells were maintained in routine culture in T175 Flasks at 37° C., 5% CO2. The growth medium consists of Ham's F12 media supplemented with 10% v/v fetal bovine serum, 1× non-essential amino acids, and 0.4 mg/ml Geneticin G418. It counts as cell-based.
Chain of Vasopressin V1a receptor (P37288 whole entry): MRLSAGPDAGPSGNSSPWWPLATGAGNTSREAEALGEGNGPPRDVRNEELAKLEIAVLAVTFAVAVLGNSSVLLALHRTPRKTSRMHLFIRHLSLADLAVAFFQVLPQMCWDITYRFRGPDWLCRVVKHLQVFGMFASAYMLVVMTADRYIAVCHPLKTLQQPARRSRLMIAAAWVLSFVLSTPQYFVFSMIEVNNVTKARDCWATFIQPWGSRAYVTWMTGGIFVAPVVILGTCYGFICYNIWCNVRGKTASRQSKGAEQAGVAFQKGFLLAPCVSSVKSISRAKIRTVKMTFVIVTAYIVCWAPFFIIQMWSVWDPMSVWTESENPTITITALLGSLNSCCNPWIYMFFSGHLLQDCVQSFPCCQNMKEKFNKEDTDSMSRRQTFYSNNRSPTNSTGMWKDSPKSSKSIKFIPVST

Consider `CN(C)C(=O)N1Cc2cc(Cl)ccc2-n2c(nnc2C2CC3(C2)CN(c2ccc(F)cn2)C3)C1`, for which the IC50 (commonly the concentration that gives 50% inhibition) was less than 100 nM. Take `O=C(C1CC1)N1CC2(CC(c3nnc4n3-c3ccc(Cl)cc3CN(C3CC3)C4)C2)C1`: the IC50 is less than 100 nM.
